According to article PMC3828267 (PLoS ONE, 2013):
Values joined by “and” are separate entries in the source; they are usually repeats but may differ in a detail not shown here. Equal values may be shown once. Read-outs that look alike come from different tables or passages of the source.

Assays:
human α4β2 AChRs [1] = target: T1, human α4β2 AChRs (Homo sapiens, UniProt P17787+P43681); assay: Acute activation, FLEXStation membrane potential dye, α4β2 cell line; format: cell-based; conditions: for Agonist type (full or partial): α4β2, mixture of stoichiometries
T1 construct: expressed in transfected cells
T1 sequence (P43681 29-627 limits assumed): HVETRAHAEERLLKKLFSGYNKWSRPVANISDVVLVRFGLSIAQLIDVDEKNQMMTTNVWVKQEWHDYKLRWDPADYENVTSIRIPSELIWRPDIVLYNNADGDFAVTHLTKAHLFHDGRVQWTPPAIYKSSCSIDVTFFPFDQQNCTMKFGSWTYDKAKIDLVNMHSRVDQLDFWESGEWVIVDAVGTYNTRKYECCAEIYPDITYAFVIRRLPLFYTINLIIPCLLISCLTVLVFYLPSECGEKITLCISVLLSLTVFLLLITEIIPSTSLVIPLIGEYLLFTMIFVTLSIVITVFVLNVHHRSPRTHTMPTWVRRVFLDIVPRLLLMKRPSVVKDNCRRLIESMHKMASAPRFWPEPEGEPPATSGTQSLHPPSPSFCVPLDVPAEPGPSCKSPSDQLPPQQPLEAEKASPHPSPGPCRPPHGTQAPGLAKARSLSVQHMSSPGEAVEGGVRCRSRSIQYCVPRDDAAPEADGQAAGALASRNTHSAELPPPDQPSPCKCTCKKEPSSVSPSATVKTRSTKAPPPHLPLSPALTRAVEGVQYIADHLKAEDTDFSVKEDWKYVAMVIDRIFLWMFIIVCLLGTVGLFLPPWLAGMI
T1 sequence (P17787 26-502): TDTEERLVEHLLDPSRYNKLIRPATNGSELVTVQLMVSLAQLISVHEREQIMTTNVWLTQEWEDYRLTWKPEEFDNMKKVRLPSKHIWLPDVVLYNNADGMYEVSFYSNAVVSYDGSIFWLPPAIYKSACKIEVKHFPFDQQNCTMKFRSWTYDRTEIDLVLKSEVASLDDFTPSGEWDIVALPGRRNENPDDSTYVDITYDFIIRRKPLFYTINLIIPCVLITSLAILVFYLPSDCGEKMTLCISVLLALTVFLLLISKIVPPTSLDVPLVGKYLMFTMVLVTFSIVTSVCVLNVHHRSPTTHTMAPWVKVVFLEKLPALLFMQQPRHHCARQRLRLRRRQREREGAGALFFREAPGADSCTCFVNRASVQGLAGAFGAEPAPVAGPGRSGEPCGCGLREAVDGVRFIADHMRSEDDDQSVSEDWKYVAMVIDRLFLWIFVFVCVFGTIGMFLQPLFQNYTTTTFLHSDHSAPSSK
Description: (§1) The parental cell line used for transfections was tsA201, derived from the human embryonic kidney cell line (HEK) 293 [33]. […] The cell line permanently expressing α3β4 AChRs has been described, [34]. A stable cell line expressing functional α7 AChRs was prepared by initially transfecting the tsA201 cell line with cDNA for α7 and subsequently transfecting with cDNA for the AChR-selective chaperone, human RIC-3.
(§2) Responses to nicotinic agonists were determined using a FLEXStation microplate fluorometer (Molecular Devices, Sunnyvale, CA) as described. For cell lines expressing α4β2 and α3β4 AChRs, the cells were plated at 10^5 cells/ml (100 µl/well) in black-walled clear-bottom 96 well plates (Costar, Fisher Scientific, Pittsbugh, PA), and incubated for 48 hours prior to assaying responses to various nicotinic agonists. The α7/RIC-3 expressing cells were plated at 5×10^5/ml in black-walled clear-bottom 96 well BioCoat plates (BD Biosciences, Franklin Lakes, NJ) in the continued presence of VPA and PBA, with the addition of 5% human AB serum (Pel-Freez Biologicals, Rogers, AR) to further increase expression of α7 [35]. The cells were then grown for 24 hours prior to the assay.
(§3) To measure responses to various nicotinic agonists, 100 µl of a fluorescent dye which is sensitive to changes in membrane potential (Molecular Devices) was added to the wells. The dye was prepared according to the manufacturer’s instructions, with the addition of atropine (0.5 µM) to block muscarinic responses. The plates were then incubated at 37°C for one hour prior to the assay. Serial dilutions of agonists were then prepared in Hanks Balanced Salt Solution (HBSS) in V-shaped 96-well plates (Fisher Scientific Co, Pittsburgh, PA). Fluorescent responses were measured in the FLEX Station at 25°C, with an excitation wavelength of 530 nm and an emission wavelength of 565 nm. Various agonists (50 µl) were added after the first 20 seconds and responses were followed for 60–120 seconds.
(§4) Data were graphed using GraphPad Prism software. Non-linear models (sigmoidal dose-response with variable slope or two site competition) were used to fit the concentration response curves. The EC50 and IC50 were calculated from the curves. Kaleidagraph software was used to determine Hill slopes and standard errors of the EC50 and IC50.

α7 AChRs [2] = target: T2, α7 AChRs (Homo sapiens, UniProt P36544); assay: Acute activation, FLEXStation membrane potential dye, α7/RIC-3 cell line; format: cell-based; set-up: expressed in transfected cells; grown in VPA and PBA
T2 sequence (P36544 23-502): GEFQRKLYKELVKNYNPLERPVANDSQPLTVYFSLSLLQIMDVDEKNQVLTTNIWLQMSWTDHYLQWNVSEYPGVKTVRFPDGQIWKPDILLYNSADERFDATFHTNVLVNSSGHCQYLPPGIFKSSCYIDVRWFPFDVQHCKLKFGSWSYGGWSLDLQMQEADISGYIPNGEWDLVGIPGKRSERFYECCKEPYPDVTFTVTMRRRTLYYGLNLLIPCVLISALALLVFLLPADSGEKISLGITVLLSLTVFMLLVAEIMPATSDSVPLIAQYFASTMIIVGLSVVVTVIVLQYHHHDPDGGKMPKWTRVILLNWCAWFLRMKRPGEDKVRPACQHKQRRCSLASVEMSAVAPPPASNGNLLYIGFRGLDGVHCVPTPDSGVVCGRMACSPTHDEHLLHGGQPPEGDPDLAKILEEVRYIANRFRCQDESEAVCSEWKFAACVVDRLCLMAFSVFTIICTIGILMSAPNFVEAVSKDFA
Description: as §1, §2, §3, §4

α3β4 AChRs [3] = target: T3, α3β4 AChRs (Homo sapiens, UniProt P30926+P32297); assay: Acute activation, FLEXStation membrane potential dye, α3β4 cell line; format: cell-based
T3 construct: expressed in transfected cells
T3 sequence (P32297 32-505): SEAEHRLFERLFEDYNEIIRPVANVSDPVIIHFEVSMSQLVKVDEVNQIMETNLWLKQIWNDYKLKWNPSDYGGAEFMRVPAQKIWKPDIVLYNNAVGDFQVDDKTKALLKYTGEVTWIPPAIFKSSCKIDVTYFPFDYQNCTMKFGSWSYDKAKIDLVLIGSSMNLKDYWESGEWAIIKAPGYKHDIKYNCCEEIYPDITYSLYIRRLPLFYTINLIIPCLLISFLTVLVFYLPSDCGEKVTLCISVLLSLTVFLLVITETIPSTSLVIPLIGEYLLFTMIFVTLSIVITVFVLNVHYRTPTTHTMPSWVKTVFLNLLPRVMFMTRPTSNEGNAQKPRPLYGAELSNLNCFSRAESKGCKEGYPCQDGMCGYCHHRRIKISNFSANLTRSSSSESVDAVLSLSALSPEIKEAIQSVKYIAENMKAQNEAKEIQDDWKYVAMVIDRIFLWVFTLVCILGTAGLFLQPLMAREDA
T3 sequence (P30926 22-498): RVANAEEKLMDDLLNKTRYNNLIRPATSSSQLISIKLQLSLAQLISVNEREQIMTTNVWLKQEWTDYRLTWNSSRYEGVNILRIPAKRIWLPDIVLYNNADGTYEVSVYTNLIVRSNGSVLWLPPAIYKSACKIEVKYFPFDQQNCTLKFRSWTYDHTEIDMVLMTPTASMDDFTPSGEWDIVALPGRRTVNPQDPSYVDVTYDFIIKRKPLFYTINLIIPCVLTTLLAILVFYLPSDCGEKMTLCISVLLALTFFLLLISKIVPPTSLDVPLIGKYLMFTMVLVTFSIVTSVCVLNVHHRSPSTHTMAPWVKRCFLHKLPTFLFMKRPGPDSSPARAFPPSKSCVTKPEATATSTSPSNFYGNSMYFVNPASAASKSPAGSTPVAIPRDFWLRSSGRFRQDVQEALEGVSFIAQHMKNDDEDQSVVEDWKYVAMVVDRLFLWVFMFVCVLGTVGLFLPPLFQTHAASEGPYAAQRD
Description: as §1, §2, §3, §4

α7 AChRs [4] = target: T2, α7 AChRs; assay: Chronic desensitization (16 h agonist, then ACh response) and calculated smoldering activation, α7 cell line; format: cell-based; set-up: expressed in transfected cells; grown in VPA and PBA; conditions: for Hill (desensitization) / Intercept of Activation and Desensitization Curves: α7: 10 µM ACh
Description: (§5) To measure desensitization, plates were prepared as for agonist assays. Sixteen hours prior to the assay, serial dilutions of agonists, prepared in regular growth medium, were added to the plates. One hour before the assay, the membrane potential-sensitive fluorescent dye with 0.5 µM atropine was added to the wells. […] Each data point represents the average of peak values for individual dose response curves from 4–8 wells.
as §4
(§6) Responses for the three different AChRs are shown in Figures 3, 4, 5, 6, along with the dose response curves for activation (the same as shown in Figure 2). The range of concentrations at which both sustained activation and desensitization can occur (“smoldering activation”) was calculated by multiplying the acute response to agonists at each concentration by the fractional response remaining after desensitization.

(α4β2)2α4 AChRs = conditions: (α4β2)2α4, concatenated AChRs in Xenopus oocytes; cited from earlier work
α3β4 AChRs [5] = target: T3, α3β4 AChRs; assay: Chronic desensitization (16 h agonist, then ACh response) and calculated smoldering activation, α3β4 cell line; format: cell-based; conditions: for Hill (desensitization) / Intercept of Activation and Desensitization Curves: α3β4: 1.0 mM ACh
Description: as §5, §4, §6

human α4β2 AChRs [6] = target: T1, human α4β2 AChRs; assay: Chronic desensitization (16 h agonist, then ACh response) and calculated smoldering activation, α4β2 cell line; format: cell-based; conditions: for Extent of desensitization of α4β2 AChRs to ACh: prolonged exposure, up to high concentrations; for Emax at 1 µM: 1 µM varenicline, read-out: Smoldering activation, % of the maximum response; for AChRs desensitized: varenicline 1 µM
Description: as §5, §4, §6

(α4β2)2β2 AChRs = target: T4, (α4β2)2β2 AChRs (Homo sapiens, UniProt P17787+P43681); conditions: (α4β2)2β2, concatenated AChRs in Xenopus oocytes; cited from earlier work
T4 construct: expressed in transfected cells
T4 sequence (P43681 29-627 limits assumed): as the sequence (P43681 29-627 limits assumed) above
T4 sequence (P17787 26-502): as the sequence (P17787 26-502) above

[7] = cited from earlier work
[8] = cited from earlier work; remark: listed apart in the source
[9] = α4β2, higher sensitivity component or monophasic curve
[10] = α4β2, lower sensitivity component
[11] = α4β2: 3 µM ACh ((α4β2)2β2 stoichiometry), centre of smoldering activation
[12] = α4β2: 3 µM ACh, first component
[13] = α4β2: 100 µM ACh (both stoichiometries)
[14] = α4β2: 100 µM ACh, first component

SMILES	Agonist type (full or partial) (human α4β2 AChRs [1])	Hill (activation) (human α4β2 AChRs [1]; [9])	Hill (activation) (human α4β2 AChRs [1]; [10])	Hill (activation) (α7 AChRs [2]; α7)	Hill (activation) (α3β4 AChRs [3]; α3β4)	Hill (desensitization) (α7 AChRs [4])	Intercept of Activation and Desensitization Curves (α7 AChRs [4]) [µM]	Hill (desensitization) (α3β4 AChRs [5])	Intercept of Activation and Desensitization Curves (α3β4 AChRs [5]) [µM]	Extent of desensitization of α4β2 AChRs to ACh (human α4β2 AChRs [6])	Intercept of Activation and Desensitization Curves (human α4β2 AChRs [6]; [11]) [µM]	Hill (desensitization) (human α4β2 AChRs [6]; [12])	Intercept of Activation and Desensitization Curves (human α4β2 AChRs [6]; [13]) [µM]	Hill (desensitization) (human α4β2 AChRs [6]; [14])	other results
CC(=O)OCC[N+](C)(C)C [ACh, acetylcholine]	full agonists	1.5	1.3	2.4	1.8	–	–	–	–	–	–	–	–	–	Amplitude of response to saturating concentration (human α4β2 AChRs [1]; α4β2, saturating ACh (300 µM)): 167,000+/−18,000 relative fluorescence units; Time to maximum response after agonist application (α7 AChRs [2]; α7, saturating ACh): ≤ 5 s; Amplitude of response to saturating concentration (α7 AChRs [2]; α7, saturating ACh (10 µM)): 54,000+/−3000 relative fluorescence units and 54,00+/−3000 relative fluorescence units; Amplitude of response to saturating concentration (α3β4 AChRs [3]; α3β4, saturating ACh (1.0 mM)): 161,000+/−14,000 relative fluorescence units
O=c1cccc2n1C[C@@H]1CNC[C@H]2C1 [Cytisine, cytisine]	partial agonist	0.9	–	4.3	1.3	−1.4	2.1	−0.6	4.1	fully desensitizing	0.45	−1.1	0.74	−1.2	EC50 (human α4β2 AChRs [1]; Activation EC50, α4β2 cell line, mixed stoichiometries, higher sensitivity component where two-site fit, else monophasic): 5500 ± 800 nM; Efficacy (%) (relative to ACh) (human α4β2 AChRs [1]; α4β2): 34%; EC50 (α7 AChRs [2]): 2000 ± 60 nM; Agonist type (full or partial) (α7 AChRs [2]; α7): full agonist; Efficacy (%) (relative to ACh) (α7 AChRs [2]; α7): 100%; EC50 (α3β4 AChRs [3]): 7500 ± 1100 nM; Agonist type (full or partial) (α3β4 AChRs [3]; α3β4): full agonist; Efficacy (%) (relative to ACh) (α3β4 AChRs [3]; α3β4): 100%; IC50 (α7 AChRs [4]): 4200 ± 740 nM; Agonist type ((α4β2)2α4 AChRs): partial agonist; IC50 (α3β4 AChRs [5]): 1300 ± 500 nM; IC50 (human α4β2 AChRs [6]; Desensitization IC50, α4β2: 3 µM ACh, overnight (16 h) agonist, first (more sensitive) component): 1 ± 0.5 nM; IC50 (human α4β2 AChRs [6]; Desensitization IC50, α4β2: 3 µM ACh, overnight agonist, second component): 250 ± 100 nM; IC50 (human α4β2 AChRs [6]; Desensitization IC50, α4β2: 100 µM ACh, overnight (16 h) agonist, first (more sensitive) component): 3 ± 0.3 nM; IC50 (human α4β2 AChRs [6]; Desensitization IC50, α4β2: 100 µM ACh, overnight agonist, second component): 20000 nM; Concentration from which the desensitization dose response curve shows a plateau (human α4β2 AChRs [6]; α4β2, assayed with 100 µM ACh): above 10 nM; Hill (desensitization) (human α4β2 AChRs [6]; α4β2: 3 µM ACh, second component): −1.1; Hill (desensitization) (human α4β2 AChRs [6]; α4β2: 100 µM ACh, second component): −0.8; Agonist type ((α4β2)2β2 AChRs): inactive
CN1CCC[C@H]1c1cccnc1 [Nicotine, nicotine]	full agonists	1.8	2.5	1.7	1.1	−3.2	1.7	−0.9	8.7	–	0.13	−1.0	1.82	−1.2	Concentrations found in the blood of smokers [7]: 58 to 340 nM; Emax at 0.1 µM (human α4β2 AChRs [6]; read-out: Calculated smoldering activation, % of maximum response, (α4β2)2α4 stoichiometry, 0.1 µM nicotine): 18%; Emax at 0.1 µM (human α4β2 AChRs [6]; read-out: Calculated smoldering activation, % of maximum response, (α4β2)2β2 stoichiometry, 0.1 µM nicotine): 6%; Emax at […] (human α4β2 AChRs [6]; read-out: Calculated smoldering response, % of maximum response, (α4β2)2α4 stoichiometry, nicotine concentration of […]): 54%
c1cnc2cc3c(cc2n1)[C@@H]1CNC[C@H]3C1 [Varenicline, varenicline]	partial agonists	1.1	1.8	3.5	1.4	−2.6	0.4	−1.1	2.1	fully desensitizing	0.16	−0.6	0.93	−1.0	Peak levels ([8]; after 14 days on standard dose of 1 mg twice daily): 0.48 µM; Peak blood levels ([8]; humans, after a 1 mg dose): 0.1 µM; Levels reached in patients ([8]; patients on therapeutic doses): 400 nM; Emax at 1 µM (human α4β2 AChRs [6]; (α4β2)2α4 AChRs): 23%; AChRs desensitized (human α4β2 AChRs [6]; (α4β2)2α4 AChRs): ~50%; Emax at 1 µM (human α4β2 AChRs [6]; (α4β2)2β2 AChRs): 4.3%; AChRs desensitized (human α4β2 AChRs [6]; (α4β2)2β2 AChRs): > 90%
